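The compound was tested at five concentrations on cells cultured in 96-well plates, with a 48-hour exposure period. GI50 = concentration required for 50% inhibition of growth.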 Calls of active or inactive are those of the source. Cut-off read from the data, not from the text of the source: active = GI50 up to about 1.1 µM and inactive = higher.
How the values were obtained:
Assay in all cases: NCI-60 cell line screen, 48 h
HOP-92 = system: HOP-92
SNB-75 = system: SNB-75
SF-268 = system: SF-268
COLO 205 = system: COLO 205
NCI-H226 = system: NCI-H226
HCT-15 = system: HCT-15
BT-549 = system: BT-549
SW-620 = system: SW-620
786-0 = system: 786-0
PC-3 = system: PC-3
DU-145 = system: DU-145
HOP-62 = system: HOP-62
UACC-257 = system: UACC-257
Hs-578T = system: Hs-578T
MDA-MB-435 = system: MDA-MB-435
OVCAR-4 = system: OVCAR-4
TK-10 = system: TK-10
RPMI-8226 = system: RPMI-8226
HCC 2998 = system: HCC 2998

| Structure (SMILES) | GI50 (HOP-92) | GI50 (SNB-75) | GI50 (SF-268) | GI50 (COLO 205) | GI50 (NCI-H226) | GI50 (HCT-15) [µM] | GI50 (BT-549) | GI50 (SW-620) | GI50 (786-0) | GI50 (PC-3) | GI50 (DU-145) | GI50 (HOP-62) | GI50 (UACC-257) | GI50 (Hs-578T) | GI50 (MDA-MB-435) | GI50 (OVCAR-4) | GI50 (TK-10) | GI50 (RPMI-8226) | GI50 (HCC 2998) |
| --- | --- | --- | --- | --- | --- | --- | --- | --- | --- | --- | --- | --- | --- | --- | --- | --- | --- | --- | --- |
| CSc1nc2ccccc2c(=O)n1/N=C1\C(=O)N(CN2CCOCC2)c2ccc(Cl)cc21 | 67 µM (inactive) | 41.5 µM (inactive) | 36.9 µM (inactive) | 17.1 µM (inactive) | 53.3 µM (inactive) | 22.9 | 15.6 µM (inactive) | 17.6 µM (inactive) | 34.8 µM (inactive) | 29 µM (inactive) | 18.5 µM (inactive) | 34.3 µM (inactive) | 19.8 µM (inactive) | 44.2 µM (inactive) | 28.4 µM (inactive) | 33.8 µM (inactive) | 16.9 µM (inactive) | – | – |
| Oc1c2cc(Br)cc1CCc1cc(Br)cc(c1O)CC2 | – | 21.6 µM (inactive) | 22.6 µM (inactive) | 14.4 µM (inactive) | 16.3 µM (inactive) | 30.5 | 22.6 µM (inactive) | 24.3 µM (inactive) | 30.2 µM (inactive) | 14.8 µM (inactive) | 16 µM (inactive) | 28.6 µM (inactive) | 20.2 µM (inactive) | 23.1 µM (inactive) | 29.2 µM (inactive) | – | 31.6 µM (inactive) | 17.2 µM (inactive) | 15.3 µM (inactive) |
| O=c1ccn(CC2(CO)CC(Cc3ccccc3)C2)c(=O)[nH]1 (configuration not stated) | – | > 100 µM (inactive) | > 100 µM (inactive) | > 100 µM (inactive) | > 100 µM (inactive) | > 100 | > 100 µM (inactive) | > 100 µM (inactive) | > 100 µM (inactive) | > 100 µM (inactive) | > 100 µM (inactive) | > 100 µM (inactive) | > 100 µM (inactive) | > 100 µM (inactive) | > 100 µM (inactive) | > 100 µM (inactive) | > 100 µM (inactive) | > 100 µM (inactive) | > 100 µM (inactive) |
| CN1CC=C(c2cccn2C)CC1 | – | > 100 µM (inactive) | > 100 µM (inactive) | > 100 µM (inactive) | > 100 µM (inactive) | > 100 | > 100 µM (inactive) | > 100 µM (inactive) | > 100 µM (inactive) | > 100 µM (inactive) | > 100 µM (inactive) | > 100 µM (inactive) | > 100 µM (inactive) | > 100 µM (inactive) | > 100 µM (inactive) | > 100 µM (inactive) | > 100 µM (inactive) | > 100 µM (inactive) | > 100 µM (inactive) |
| CC1(C)CC2C(/C1=N/O)C1(C)CCCC2(C)C1O (configuration not stated) | > 100 µM (inactive) | > 100 µM (inactive) | > 100 µM (inactive) | > 100 µM (inactive) | > 100 µM (inactive) | > 100 | > 100 µM (inactive) | > 100 µM (inactive) | > 100 µM (inactive) | > 100 µM (inactive) | > 100 µM (inactive) | > 100 µM (inactive) | > 100 µM (inactive) | > 100 µM (inactive) | > 100 µM (inactive) | > 100 µM (inactive) | > 100 µM (inactive) | > 100 µM (inactive) | – |
| O=C(O)c1cc2ccccc2c(/N=N/c2ccc(S(=O)(=O)Nc3nccs3)cc2)c1O | > 100 µM (inactive) | > 100 µM (inactive) | > 100 µM (inactive) | > 100 µM (inactive) | > 100 µM (inactive) | > 100 | – | > 100 µM (inactive) | > 100 µM (inactive) | > 100 µM (inactive) | > 100 µM (inactive) | > 100 µM (inactive) | > 100 µM (inactive) | > 100 µM (inactive) | > 100 µM (inactive) | > 100 µM (inactive) | > 100 µM (inactive) | > 100 µM (inactive) | > 100 µM (inactive) |
| CC(=O)N(C(C)=O)n1c(-c2ccccc2)n[nH]c1=O | > 100 µM (inactive) | > 100 µM (inactive) | > 100 µM (inactive) | > 100 µM (inactive) | – | > 100 | > 100 µM (inactive) | > 100 µM (inactive) | > 100 µM (inactive) | > 100 µM (inactive) | > 100 µM (inactive) | > 100 µM (inactive) | > 100 µM (inactive) | – | > 100 µM (inactive) | > 100 µM (inactive) | > 100 µM (inactive) | > 100 µM (inactive) | > 100 µM (inactive) |
| CCCCCCSc1nc(COC(=O)NC)c(COC(=O)NC)n1C | – | > 100 µM (inactive) | > 100 µM (inactive) | > 100 µM (inactive) | > 100 µM (inactive) | > 100 | > 100 µM (inactive) | > 100 µM (inactive) | > 100 µM (inactive) | > 100 µM (inactive) | > 100 µM (inactive) | > 100 µM (inactive) | > 100 µM (inactive) | > 100 µM (inactive) | > 100 µM (inactive) | > 100 µM (inactive) | > 100 µM (inactive) | > 100 µM (inactive) | – |
| CC(=O)N1C(Nc2cnc3ccccc3c2)CCN1c1ccccc1 (configuration not stated) | – | > 10 µM (inactive) | > 10 µM (inactive) | > 10 µM (inactive) | > 10 µM (inactive) | > 10 | > 10 µM (inactive) | 4.78 µM (inactive) | > 10 µM (inactive) | > 10 µM (inactive) | > 10 µM (inactive) | > 10 µM (inactive) | > 10 µM (inactive) | > 10 µM (inactive) | > 10 µM (inactive) | > 10 µM (inactive) | > 10 µM (inactive) | > 10 µM (inactive) | > 10 µM (inactive) |
| NC[C@H]1Nc2ccccc2[C@@H](O)C1O (some centres not stated) | > 100 µM (inactive) | > 100 µM (inactive) | > 100 µM (inactive) | > 100 µM (inactive) | > 100 µM (inactive) | > 100 | – | > 100 µM (inactive) | > 100 µM (inactive) | > 100 µM (inactive) | > 100 µM (inactive) | > 100 µM (inactive) | > 100 µM (inactive) | > 100 µM (inactive) | > 100 µM (inactive) | > 100 µM (inactive) | > 100 µM (inactive) | > 100 µM (inactive) | > 100 µM (inactive) |
| O=[N+]([O-])/C(C(Cl)=C(Cl)Cl)=C(\Nc1cccc2cccnc12)Sc1ccccc1 | – | 23.7 µM (inactive) | 17.9 µM (inactive) | 17.1 µM (inactive) | 28.6 µM (inactive) | 17.5 | 21.9 µM (inactive) | 18 µM (inactive) | 20 µM (inactive) | 18.8 µM (inactive) | 22.9 µM (inactive) | 23.4 µM (inactive) | 19.8 µM (inactive) | 13.4 µM (inactive) | 18.7 µM (inactive) | 23.1 µM (inactive) | – | 31.5 µM (inactive) | 78.2 µM (inactive) |
| CCOC(=O)c1c(-c2ccccc2)c(C)cn1C | > 10 µM (inactive) | > 10 µM (inactive) | > 10 µM (inactive) | – | > 10 µM (inactive) | > 10 | > 10 µM (inactive) | – | > 10 µM (inactive) | – | > 10 µM (inactive) | – | > 10 µM (inactive) | > 10 µM (inactive) | > 10 µM (inactive) | > 10 µM (inactive) | > 10 µM (inactive) | – | – |
| C/C(=C/c1ccccc1)CN(C(=O)/C=C\Sc1ccccc1)C(C)(C)C | 4.85 µM (inactive) | > 100 µM (inactive) | – | > 100 µM (inactive) | > 94.4 µM (inactive) | 37.2 | > 43.7 µM (inactive) | > 100 µM (inactive) | > 100 µM (inactive) | > 68.7 µM (inactive) | > 100 µM (inactive) | > 100 µM (inactive) | 48.3 µM (inactive) | – | > 100 µM (inactive) | > 87.5 µM (inactive) | > 100 µM (inactive) | 21.2 µM (inactive) | 45.4 µM (inactive) |
| COC(=O)C1CC2(C)C=CC1N(C(=O)OCc1ccccc1)C2 (configuration not stated) | – | 28.5 µM (inactive) | > 100 µM (inactive) | > 100 µM (inactive) | > 100 µM (inactive) | 94 | 54.1 µM (inactive) | > 100 µM (inactive) | > 100 µM (inactive) | 87.7 µM (inactive) | > 100 µM (inactive) | > 100 µM (inactive) | 65.3 µM (inactive) | 86.5 µM (inactive) | 79.6 µM (inactive) | 40 µM (inactive) | > 100 µM (inactive) | 48 µM (inactive) | > 100 µM (inactive) |
| O=C(N/N=C/C=C/c1ccc([N+](=O)[O-])o1)c1ccc(Br)s1 | 10.8 µM (inactive) | > 100 µM (inactive) | 28.8 µM (inactive) | 17 µM (inactive) | 22.2 µM (inactive) | 13.2 | 25.3 µM (inactive) | 16.1 µM (inactive) | 19.1 µM (inactive) | 18.7 µM (inactive) | 30.3 µM (inactive) | 51.2 µM (inactive) | – | 6.73 µM (inactive) | 25.4 µM (inactive) | 18.9 µM (inactive) | 20 µM (inactive) | 3.78 µM (inactive) | – |
| O=C1C=CC(O)C2C1CC13SSC4(CC5C(=O)C=CC(O)C5N4C1=O)C(=O)N23 (configuration not stated) | 0.0966 µM (active) | 1.11 µM (active) | 0.847 µM (active) | 0.155 µM (active) | 0.308 µM (active) | 0.14 | 1.63 µM (inactive) | 0.0324 µM (active) | 0.0396 µM (active) | 0.138 µM (active) | 0.354 µM (active) | 0.324 µM (active) | 0.183 µM (active) | 0.5 µM (active) | 0.164 µM (active) | 0.476 µM (active) | 0.485 µM (active) | < 0.01 µM (active) | – |
| Cc1cnc2cc(Cl)ccc2c1SCC(=O)O | > 100 µM (inactive) | – | > 100 µM (inactive) | – | > 100 µM (inactive) | > 100 | > 100 µM (inactive) | > 100 µM (inactive) | > 100 µM (inactive) | > 100 µM (inactive) | > 100 µM (inactive) | > 100 µM (inactive) | > 100 µM (inactive) | 93.5 µM (inactive) | > 100 µM (inactive) | > 100 µM (inactive) | > 100 µM (inactive) | > 100 µM (inactive) | – |

Source: ChEMBL document CHEMBL1201862, “PubChem BioAssay data set” (2004)
